According to ChEMBL document CHEMBL3638862, “Radiolabeled PDE10 inhibitors” (2014):
pKi: −log10 of the molar value.

Molecular target: cAMP and cAMP-inhibited cGMP 3',5'-cyclic phosphodiesterase 10A (Homo sapiens, UniProt Q9Y233)
Assay: Florescence Polarization Assay: The activity of the compounds in accordance with the present invention as PDE10 inhibitors may be readily determined without undue experimentation using a fluorescence polarization (FP) methodology well known in the art (Huang, W., et al., J. Biomol Screen, 2002, 7: 215). […] PDE10A2 was amplified from human fetal brain cDNA (Clontech, Mountain View, Calif.) using a forward primer corresponding to nucleotides 56-77 of human PDE10A2 (Accession No. AF127480, Genbank Identifier 4894716), containing a Kozak consensus sequence.

cAMP and cAMP-inhibited cGMP 3',5'-cyclic phosphodiesterase 10A, sequence (Q9Y233 whole entry): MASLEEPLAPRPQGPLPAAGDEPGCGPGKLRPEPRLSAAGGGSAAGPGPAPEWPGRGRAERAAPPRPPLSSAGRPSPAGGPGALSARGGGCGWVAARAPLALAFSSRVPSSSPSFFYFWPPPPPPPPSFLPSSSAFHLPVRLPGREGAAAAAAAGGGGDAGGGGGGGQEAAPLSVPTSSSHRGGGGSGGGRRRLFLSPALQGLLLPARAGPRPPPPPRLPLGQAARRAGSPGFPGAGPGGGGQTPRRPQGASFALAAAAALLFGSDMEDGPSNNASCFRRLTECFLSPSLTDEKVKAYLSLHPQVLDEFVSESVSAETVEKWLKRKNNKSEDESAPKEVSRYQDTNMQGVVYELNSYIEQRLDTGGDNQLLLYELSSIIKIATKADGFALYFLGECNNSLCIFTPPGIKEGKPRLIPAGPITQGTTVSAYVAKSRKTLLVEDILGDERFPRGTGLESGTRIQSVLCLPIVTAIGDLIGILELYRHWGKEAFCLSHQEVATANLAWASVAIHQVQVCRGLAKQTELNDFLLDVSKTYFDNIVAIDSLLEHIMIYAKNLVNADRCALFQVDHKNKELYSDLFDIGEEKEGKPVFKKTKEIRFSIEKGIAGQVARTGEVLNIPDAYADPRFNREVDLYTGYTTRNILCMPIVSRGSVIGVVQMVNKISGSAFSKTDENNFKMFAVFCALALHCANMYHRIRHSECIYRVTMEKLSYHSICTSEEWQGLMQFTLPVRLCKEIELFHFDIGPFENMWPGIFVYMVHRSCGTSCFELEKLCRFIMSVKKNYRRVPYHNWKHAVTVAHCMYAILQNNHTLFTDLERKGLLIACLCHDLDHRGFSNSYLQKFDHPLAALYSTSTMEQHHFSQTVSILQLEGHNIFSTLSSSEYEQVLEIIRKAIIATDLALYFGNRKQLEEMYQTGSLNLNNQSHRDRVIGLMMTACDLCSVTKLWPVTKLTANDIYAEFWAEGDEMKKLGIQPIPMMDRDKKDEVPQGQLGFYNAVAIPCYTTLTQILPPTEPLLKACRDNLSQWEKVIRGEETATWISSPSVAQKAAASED

For `COc1ccc(-n2c(CCN3C(=O)c4cccc(OCC(F)(F)F)c4C3=O)nc3ccccc3c2=O)cc1`, the pKi was 9.10.
